Reference: patent US7445790B2, “External preparations for skin” (Shiseido Company, Ltd., priority 2002, dated 2008)

Tests used:
[1] = IOB value of the oil component; type: physicochemical; conditions: obtained oil component
[2] = Solubility of a slightly soluble triazine-type ultraviolet absorbent in oil components at 0° C.; type: physicochemical; conditions: concentration (mass percentage) in a saturated solution at 0° C. of 2,4-bis{[4-(2-ethylhexyloxy)-2-hydroxy]phenyl}-6-(4-methoxyphenyl)1,3,5-triazine in the oil component
Source text: (§1) For the slightly soluble ultraviolet absorbent, a triazine-type ultraviolet absorbent 2,4-bis{[4-(2-ethylhexyloxy)-2-hydroxy]phenyl}-6-(4-methoxyphenyl)1,3,5-triazine was used.
This oil component is a mixture of alkyl benzoates having 12-15 carbon atoms.
as §1

Structure (SMILES) | IOB value [1] | Solubility ([2]; Table 1-4) [%] | Solubility ([2]; Table 2-1) [%]
CCCCC(CC)COC(=O)c1ccccc1 (centres unmarked) [2-ethylhexyl benzoate] | 0.26 |  | 
CC(CCOC(=O)c1ccccc1)CC(C)(C)C (centres unmarked) [3,5,5-trimethylhexyl benzoate] | 0.26 |  | 
CC(C)CCCC(C)CCOC(=O)c1ccccc1 (centres unmarked) [3,7-dimethyloctyl benzoate] | 0.23 |  | 
C[Si]1(C)O[Si](C)(C)O[Si](C)(C)O[Si](C)(C)O[Si](C)(C)O1 [Decamethyl cyclopentane siloxane] |  | 0 | 0
